Source: patent US8771944B2, “Use of micro-RNA as a biomarker of immunomodulatory drug activity” (Celgene Corporation, priority 2007, dated 2014)

Columns and labels:
Namalwa cells [1] = assay: miRNA expression profile / qRT-PCR of miR-143 and miR-145 in Namalwa cells; assay type: cell-based; conditions: 10 μM, 6 or 24 hours, FIG. 2
Description: An experiment similar to described above in Sections 6.1-6.5 was performed with a Namalwa lymphoma cell line model. The Namalwa Burkitt's lymphoma cell line was purchased from ATCC and grown in RPMI with 10% fetal bovine serum according to standard tissue culture methods known in the art.
Namalwa cells grown as above were treated for 6 or 24 hours with either 0.1% DMSO, 10 μM 1,3-dioxo-2-(2,6-dioxopiperidin-3-yl)-4-aminoisoindoline, or the HDAC inhibitor TSA 1 μM. Cells were harvested at indicated times and then miRNA was purified as outlined in previous sections.
miRNA expression profiles in Namalwa cells treated with immunomodulatory compounds were generated using methods similar to that described in Section 6.3.
Levels of miR-145 and miR-143 were determined using qRT-PCR. Purified miRNA was analyzed using a TaqmanR microRNA expression assay (Applied Biosystems). Five ng of purified miRNA was subjected to qRT-PCR with TaqmanR miRNA assays for miR-143 and miR-145 according to manufacturers instructions. The procedure may be achieved by using miRNA reverse transcription and PCR primers with standard buffers, reagents, and methods.

CD34+ cells = assay: qRT-PCR of miR-130a and miR-146b in CD34+ cell cultures; assay type: cell-based; conditions: 6 days, 1 or 10 μm
Description: (§1) CD34^+ cells were expanded for 6 days in Iscove's DMEM media (Invitrogen) with 20% BIT serum substitute (StemCell Technologies) in the presence of SCF (100 ng/ml), Flt-3 ligand (100 ng/ml), and IL-3 (20 ng/ml) and then differentiated for 6 days in Iscove's/20% BIT containing SCF (50 ng/ml) and erythropoietin (2 U/ml) in the presence of 0.1% DMSO, 1 or 10 uM the immunomodulatory compound. Cells were grown in tissue culture and treated with the immunomodulatory compound according to methods known in the art.
To quantitate selected miRNAs with qRT-PCR, purified miRNA was analyzed using a TaqmanR microRNA Assay (Applied Biosystems). Five ng of purified miRNA was subjected to qRT-PCR with TaqmanR miRNA assay according to manufacturers instructions. Alternatively, the procedure may be achieved by using miRNA-specific reverse transcription and PCR primers with standard buffers, reagents, and methods.
Levels of miR-130a and miR-146b were determined using qRT-PCR as described above.

[2] = test system: CD34+ hematopoietic precursor cells; assay: miRNA differential expression profiling (Ambion Bioarrays) in CD34+ cells; assay type: cell-based; conditions: CD34+ hematopoietic precursor model
Excerpt: A CD34^+ hematopoietic precursor cell line was utilized to examine miRNA biomarker expression upon treatment with an immunomodulatory compound. CD34^+ cells used in preclinical studies were purchased from a commercial supplier (Lonza), isolated by positive immunomagnetic selection from bone marrow. In clinical studies, CD34^+ cells can be purified by positive immunomagnetic selection or by flow cytometric immunosorting from bone marrow or peripheral blood using conventional methodologies.
as §1, with “art. […]” for “art.”
The expression array method detected two miRNAs that were regulated by administration of immunomodulatory agents in the CD34^+ hematopoietic precursor model.

[3] = cited from earlier work
HL60 cells = assay: Agilent miRNA array v2, lenalidomide-treated HL60 cells; assay type: cell-based, human; conditions: for miR-99b Fold Increase / miR-125a Fold Increase / miR-143 Fold Increase / miR-145 Fold Increase / miR-146b Fold Increase: HL-60 cells
Description: (§2) Additional assays were performed to determine the effects of lenalidomide (1-oxo-2-(2,6-dioxopiperidin-3-yl)-4-aminoisoindoline) administration to various cell cultures on the expression of miRNAs. The miRNAs were detected using the Agilent miRNA array v2, which contains probes for 760 human miRNAs. […] was isolated using the Qiagen miRNeasy kit, total RNA (100 ng) was dephosphorylated and ligated with pCp-Cy3. Labeled RNA was purified and hybridized to Agilent miRNA arrays.
HL60 cells: The addition of lenalidomide (1-oxo-2-(2,6-dioxopiperidin-3-yl)-4-aminoisoindoline) to a cell culture from an acute myelogenous leukemia (AML) cell line (HL60) was also shown to upregulate a number of miRNAs.

H929 cells = assay: Agilent miRNA array v2, lenalidomide-treated H929 cells; assay type: cell-based, human; conditions: for miR-204 Fold Increase / miR-424 Fold Increase / miR-503 Fold Increase: H929 cells
Description: as §2

Namalwa cells [4] = assay: Agilent miRNA array v2, lenalidomide-treated Namalwa cells; assay type: cell-based, human; conditions: for miR-143 Fold Increase / miR-145 Fold Increase: Namalwa cells
Description: as §2
Namalwa cells: Lenalidomide was added to Namalwa cells at a concentration of 0.1 μm, 1 μm, or 10 μm. The miRNA levels were measured at 24 and 48 hours after addition of the lenalidomide. The results with this array confirmed the upregulation of miR-143 and miR-145 in Namalwa cells in a dose-dependent response to administration of 1-oxo-2-(2,6-dioxopiperidin-3-yl)-4-aminoisoindoline (Table 2).

[5] = HL60 acute myelogenous leukemia cell line
[6] = HL60 cells, dose dependent manner at both 24 and 48 hours
[7] = 24 hour treatment, Lenalidomide 0.1 uM
[8] = 24 hour treatment, Lenalidomide 1.0 uM
[9] = 24 hour treatment, Lenalidomide 10.0 uM
[10] = 48 hour treatment, Lenalidomide 0.1 uM
[11] = 48 hour treatment, Lenalidomide 1.0 uM
[12] = 48 hour treatment, Lenalidomide 10.0 uM
[13] = H929 multiple myeloma cell line, 24 and 48 hours
[14] = Namalwa cells, 0.1, 1 or 10 μm, 24 and 48 hours, dose-dependent response
[15] = 24 hour treatment, 0.1 uM lenalidomide
[16] = 24 hour treatment, 1 uM lenalidomide
[17] = 24 hour treatment, 10 uM lenalidomide
[18] = 48 hour treatment, 0.1 uM lenalidomide
[19] = 48 hour treatment, 1 uM lenalidomide

Nc1cccc2c1C(=O)N(C1CCC(=O)NC1=O)C2=O (stereo not drawn) [1,3-dioxo-2-(2,6-dioxopiperidin-3-yl)-4-aminoisoindoline]
miR-143 expression change (Namalwa cells [1]): upregulation
miR-145 expression change (Namalwa cells [1]): upregulation
miR-146b expression (qRT-PCR) compared to DMSO control (CD34+ cells; FIG. 1A): upregulation
miR-130a expression (qRT-PCR) compared to DMSO control (CD34+ cells; FIG. 1B): upregulation
miR-130a expression change (expression array) [2]: upregulated
miR-146b expression change (expression array) [2]: upregulated

Nc1cccc2c1CN(C1CCC(=O)NC1=O)C2=O (stereo not drawn) [Form E, 3-(4-amino-1-oxo-1,3 dihydro-isoindol-2-yl)-piperidene-2,6-dione]
stability of polymorphic form in aqueous solvent systems [3]: most stable form

Nc1cccc2c1CN(C1CCC(=O)NC1=O)C2=O (stereo not drawn) [lenalidomide, 1-oxo-2-(2,6-dioxopiperidin-3-yl)-4-aminoisoindoline]
miR-143 expression change (HL60 cells; [5]): upregulated
miR-145 expression change (HL60 cells; [5]): upregulated
miR-99b expression change (HL60 cells; [6]): upregulated
miR-125a expression change (HL60 cells; [6]): upregulated
miR-146b expression change (HL60 cells; [6]): upregulated
miR-99b Fold Increase (HL60 cells; [7]): 1.81 fold
miR-125a Fold Increase (HL60 cells; [7]): 1.56 fold
miR-143 Fold Increase (HL60 cells; [7]): 1.42 fold
miR-145 Fold Increase (HL60 cells; [7]): 1.33 fold
miR-146b Fold Increase (HL60 cells; [7]): 2.28 fold
miR-99b Fold Increase (HL60 cells; [8]): 2.37 fold
miR-125a Fold Increase (HL60 cells; [8]): 1.93 fold
miR-143 Fold Increase (HL60 cells; [8]): 1.56 fold
miR-145 Fold Increase (HL60 cells; [8]): 1.62 fold
miR-146b Fold Increase (HL60 cells; [8]): 2.99 fold
miR-99b Fold Increase (HL60 cells; [9]): 2.53 fold
miR-125a Fold Increase (HL60 cells; [9]): 2.04 fold
miR-143 Fold Increase (HL60 cells; [9]): 1.63 fold
miR-145 Fold Increase (HL60 cells; [9]): 1.77 fold
miR-146b Fold Increase (HL60 cells; [9]): 3.29 fold
miR-99b Fold Increase (HL60 cells; [10]): 1.99 fold
miR-125a Fold Increase (HL60 cells; [10]): 1.72 fold
miR-143 Fold Increase (HL60 cells; [10]): 1.96 fold
miR-145 Fold Increase (HL60 cells; [10]): 1.89 fold
miR-146b Fold Increase (HL60 cells; [10]): 4.38 fold
miR-99b Fold Increase (HL60 cells; [11]): 2.45 fold
miR-125a Fold Increase (HL60 cells; [11]): 2.05 fold
miR-143 Fold Increase (HL60 cells; [11]): 2.40 fold
miR-145 Fold Increase (HL60 cells; [11]): 2.27 fold
miR-146b Fold Increase (HL60 cells; [11]): 7.16 fold
miR-99b Fold Increase (HL60 cells; [12]): 2.69 fold
miR-125a Fold Increase (HL60 cells; [12]): 2.24 fold
miR-143 Fold Increase (HL60 cells; [12]): 2.25 fold
miR-145 Fold Increase (HL60 cells; [12]): 2.34 fold
miR-146b Fold Increase (HL60 cells; [12]): 7.07 fold
miR-204 Fold Increase (H929 cells; [7]): 1.75 fold
miR-424 Fold Increase (H929 cells; [7]): 1.50 fold
miR-503 Fold Increase (H929 cells; [7]): 1.61 fold
miR-204 Fold Increase (H929 cells; [8]): 2.20 fold
miR-424 Fold Increase (H929 cells; [8]): 2.08 fold
miR-503 Fold Increase (H929 cells; [8]): 2.37 fold
miR-204 Fold Increase (H929 cells; [9]): 2.00 fold
miR-424 Fold Increase (H929 cells; [9]): 2.10 fold
miR-503 Fold Increase (H929 cells; [9]): 2.44 fold
miR-204 Fold Increase (H929 cells; [10]): 2.61 fold
miR-424 Fold Increase (H929 cells; [10]): 1.71 fold
miR-503 Fold Increase (H929 cells; [10]): 1.89 fold
miR-204 Fold Increase (H929 cells; [11]): 4.30 fold
miR-424 Fold Increase (H929 cells; [11]): 3.08 fold
miR-503 Fold Increase (H929 cells; [11]): 3.80 fold
miR-204 Fold Increase (H929 cells; [12]): 4.45 fold
miR-424 Fold Increase (H929 cells; [12]): 3.36 fold
miR-503 Fold Increase (H929 cells; [12]): 4.05 fold
miR-204 expression change (H929 cells; [13]): increase in expression in a dose dependent manner
miR-424 expression change (H929 cells; [13]): increase in expression in a dose dependent manner
miR-503 expression change (H929 cells; [13]): increase in expression in a dose dependent manner
miR-143 expression change (Namalwa cells [4]; [14]): upregulation
miR-145 expression change (Namalwa cells [4]; [14]): upregulation
miR-143 Fold Increase (Namalwa cells [4]; [15]): 2.29 fold
miR-145 Fold Increase (Namalwa cells [4]; [15]): 2.34 fold
miR-143 Fold Increase (Namalwa cells [4]; [16]): 3.81 fold
miR-145 Fold Increase (Namalwa cells [4]; [16]): 4.16 fold
miR-143 Fold Increase (Namalwa cells [4]; [17]): 4.69 fold
miR-145 Fold Increase (Namalwa cells [4]; [17]): 4.96 fold
miR-143 Fold Increase (Namalwa cells [4]; [18]): 2.31 fold
miR-145 Fold Increase (Namalwa cells [4]; [18]): 2.53 fold
miR-143 Fold Increase (Namalwa cells [4]; [19]): 4.68 fold
miR-145 Fold Increase (Namalwa cells [4]; [19]): 5.12 fold
